# Reference: ChEMBL document CHEMBL3885861, “Open TG-GATES”
# Organism: Rattus norvegicus
# Assay: Open TG-GATES - Regimen: Single
# Format: toxicity, organism-based, Sprague-Dawley
# Design: regimen Single, gender Male, age 6 weeks
# Details: in vivo, po, 300 mg/kg, route gavage, dose level High; for APTT / Bas / Eos / Fbg / Hb / Ht / Lym / MCH / MCHC / MCV / Mono / Neu / PT / Plat / RBC / Ret / WBC: tissue Blood; for KIDNEY_L / KIDNEY_R / KIDNEY_TOTAL: tissue Kidney; for LIVER: tissue Liver; for A/G / ALP / ALT / AST / BUN / CRE / Ca / Cl / DBIL / GLC / IP / K / LDH / Na / PL / RALB / TBIL / TC / TG / TP / gamma-GTP: tissue Plasma
structure (smiles),measurement,setting,value
C[C@]12CCC(=O)C=C1CC[C@@H]1[C@@H]2CC[C@@]2(C)[C@H]1CC[C@]2(C)O [METHYLTESTOSTERONE],TERMINAL_BW,3 h,199.1 g
same,APTT,3 h,18.1 s
same,Bas,3 h,0%
same,Eos,3 h,0.8%
same,Fbg,3 h,279.8 mg/dL
same,Hb,3 h,13.1 g/dL
same,Ht,3 h,38.1%
same,Lym,3 h,74%
same,MCH,3 h,21.3 pg
same,MCHC,3 h,34.4%
same,MCV,3 h,62.1 fL
same,Mono,3 h,3.2%
same,Neu,3 h,21.2%
same,PT,3 h,12.9 s
same,Plat,3 h,116.5 x10_4/uL
same,RBC,3 h,614.2 x10_4/ul
same,Ret,3 h,8.5%
same,WBC,3 h,82.4 x10_2/uL
same,KIDNEY_L,3 h,0.9 g
same,KIDNEY_R,3 h,0.9 g
same,KIDNEY_TOTAL,3 h,1.8 g
same,LIVER,3 h,8.5 g
same,A/G,3 h,0.9
same,ALP,3 h,1496.8 IU/L
same,ALT,3 h,40 IU/L
same,AST,3 h,74.6 IU/L
same,BUN,3 h,10.6 mg/dL
same,CRE,3 h,0.2 mg/dL
same,Ca,3 h,10.6 mg/dL
same,Cl,3 h,105.4 meq/L
same,DBIL,3 h,0.012 mg/dL
same,GLC,3 h,188.2 mg/dL
same,IP,3 h,9.6 mg/dL
same,K,3 h,4.3 meq/L
same,LDH,3 h,66 IU/L
same,Na,3 h,140.8 meq/L
same,PL,3 h,135.2 mg/dL
same,RALB,3 h,2.5 g/dL
same,TBIL,3 h,0.05 mg/dL
same,TC,3 h,75 mg/dL
same,TG,3 h,41.2 mg/dL
same,TP,3 h,5.4 g/dL
same,gamma-GTP,3 h,1.2 IU/L
same,TERMINAL_BW,6 h,201.8 g
same,APTT,6 h,18.2 s
same,Bas,6 h,0%
same,Eos,6 h,0.8%
same,Fbg,6 h,274.8 mg/dL
same,Hb,6 h,12.9 g/dL
same,Ht,6 h,37.7%
same,Lym,6 h,76.4%
same,MCH,6 h,21.3 pg
same,MCHC,6 h,34.3%
same,MCV,6 h,62 fL
same,Mono,6 h,3%
same,Neu,6 h,19.6%
same,PT,6 h,13.4 s
same,Plat,6 h,114.3 x10_4/uL
same,RBC,6 h,608.4 x10_4/ul
same,Ret,6 h,7.9%
same,WBC,6 h,66.5 x10_2/uL
same,KIDNEY_L,6 h,0.9 g
same,KIDNEY_R,6 h,0.9 g
same,KIDNEY_TOTAL,6 h,1.7 g
same,LIVER,6 h,8.1 g
same,A/G,6 h,0.9
same,ALP,6 h,1589.4 IU/L
same,ALT,6 h,45 IU/L
same,AST,6 h,77.2 IU/L
same,BUN,6 h,9 mg/dL
same,CRE,6 h,0.2 mg/dL
same,Ca,6 h,10.6 mg/dL
same,Cl,6 h,107.8 meq/L
same,DBIL,6 h,0.016 mg/dL
same,GLC,6 h,181.8 mg/dL
same,IP,6 h,9.6 mg/dL
same,K,6 h,4.2 meq/L
same,LDH,6 h,67.8 IU/L
same,Na,6 h,141.6 meq/L
same,PL,6 h,120 mg/dL
same,RALB,6 h,2.5 g/dL
same,TBIL,6 h,0.054 mg/dL
same,TC,6 h,57.8 mg/dL
same,TG,6 h,40.8 mg/dL
same,TP,6 h,5.4 g/dL
same,gamma-GTP,6 h,1.2 IU/L
same,TERMINAL_BW,9 h,203.1 g
same,APTT,9 h,17.8 s
same,Bas,9 h,0%
same,Eos,9 h,1%
same,Fbg,9 h,269.8 mg/dL
same,Hb,9 h,12.7 g/dL
same,Ht,9 h,37.2%
same,Lym,9 h,74.4%
same,MCH,9 h,21.5 pg
same,MCHC,9 h,34.1%
same,MCV,9 h,62.9 fL
same,Mono,9 h,2.8%
same,Neu,9 h,21.8%
same,PT,9 h,13.7 s
same,Plat,9 h,105 x10_4/uL
same,RBC,9 h,592.4 x10_4/ul
same,Ret,9 h,8.5%
same,WBC,9 h,70.7 x10_2/uL
same,KIDNEY_L,9 h,0.9 g
same,KIDNEY_R,9 h,0.9 g
same,KIDNEY_TOTAL,9 h,1.8 g
same,LIVER,9 h,8.1 g
same,A/G,9 h,0.9
same,ALP,9 h,1500.8 IU/L
same,ALT,9 h,36.6 IU/L
same,AST,9 h,70.6 IU/L
same,BUN,9 h,7.8 mg/dL
same,CRE,9 h,0.2 mg/dL
same,Ca,9 h,10.5 mg/dL
same,Cl,9 h,107.6 meq/L
same,DBIL,9 h,0.02 mg/dL
same,GLC,9 h,182.4 mg/dL
same,IP,9 h,10.7 mg/dL
same,K,9 h,4.3 meq/L
same,LDH,9 h,59 IU/L
same,Na,9 h,142.4 meq/L
same,PL,9 h,103.2 mg/dL
same,RALB,9 h,2.5 g/dL
same,TBIL,9 h,0.06 mg/dL
same,TC,9 h,46.2 mg/dL
same,TG,9 h,49 mg/dL
same,TP,9 h,5.3 g/dL
same,gamma-GTP,9 h,1 IU/L
same,TERMINAL_BW,24 h,203 g
same,APTT,24 h,20.8 s
same,Bas,24 h,0%
same,Eos,24 h,1%
same,Fbg,24 h,267.4 mg/dL
same,Hb,24 h,13.1 g/dL
same,Ht,24 h,37.8%
same,Lym,24 h,83%
same,MCH,24 h,22 pg
same,MCHC,24 h,34.5%
same,MCV,24 h,63.7 fL
same,Mono,24 h,2.6%
same,Neu,24 h,13%
same,PT,24 h,13.8 s
same,Plat,24 h,116.9 x10_4/uL
same,RBC,24 h,593.2 x10_4/ul
same,Ret,24 h,7.7%
same,WBC,24 h,89.5 x10_2/uL
same,KIDNEY_L,24 h,0.9 g
same,KIDNEY_R,24 h,0.9 g
same,KIDNEY_TOTAL,24 h,1.8 g
same,LIVER,24 h,10.2 g
same,A/G,24 h,0.9
same,ALP,24 h,1864.8 IU/L
same,ALT,24 h,48.8 IU/L
same,AST,24 h,77.6 IU/L
same,BUN,24 h,16.8 mg/dL
same,CRE,24 h,0.2 mg/dL
same,Ca,24 h,10.9 mg/dL
same,Cl,24 h,107.8 meq/L
same,DBIL,24 h,0.034 mg/dL
same,GLC,24 h,185.2 mg/dL
same,IP,24 h,7.6 mg/dL
same,K,24 h,4.3 meq/L
same,LDH,24 h,71 IU/L
same,Na,24 h,142 meq/L
same,PL,24 h,126.6 mg/dL
same,RALB,24 h,2.6 g/dL
same,TBIL,24 h,0.032 mg/dL
same,TC,24 h,45.4 mg/dL
same,TG,24 h,238 mg/dL
same,TP,24 h,5.6 g/dL
same,gamma-GTP,24 h,1.2 IU/L
